# Test results: patent publication US12649734B2, “Bioavailable protein disulfide isomerase inhibitors” (THE CLEVELAND CLINIC FOUNDATION, priority 2020, dated 2026)
# Assays:
# MM1.S cells = assay: RNA-seq gene expression profiling; type: cell-based, human; details: 3 μM, 6 h
# Protocol: FIGS. 7A-7H provide graphs showing CCF642-34 is selective for PDIA1 inhibition-induced ER stress response pathway. MM1.S cells were treated with 3 μM of either CCF642 or CCF642-34 for 6 h, and gene expression analysis was performed by RNA sequencing. (A,B) Volcano plots showing CCF642-34 and CCF642 compared to DMSO control. The criteria for differential expression were at least a 2-fold change with p value less than 0.05. The analysis was performed in Originlab, Version 2019b (OriginLab Corporation, Northampton, MA, USA). […] The diagram was generated using a web-based bioinformatics server. (D,E) Hierarchical clusterings with heat map of MM1.S cells treated with vehicle CCF642-34 or CCF642 are shown for response to endoplasmic reticulum stress and unfolded protein response gene sets. (F-H) Heat maps of PERK and ATF6 target genes, Nrf2, and ER-associated degradation (ERAD) pathways are compared between control and inhibitor-treated MM1.S cells. Data analysis was performed using a web-based server and the Broad Institute Morpheus software.
# RNA-seq and analysis: MM1.S cells were treated with 3 μM of either CCF642 or CCF642-34 for 6 h, and RNA was purified by using the NucleoSpin RNA kit (Takara Bio USA, Inc.; cat. #740955) according to the manufacturer's instruction. The RNA sequencings were completed as reported previously. Guan et al., Commun. Biol., 3, 1-13 (2020) The RNA-seq data were sub-mitted to the Gene Expression Omnibus (GEO) repository at the National Center for Biotechnology Information (NCBI) archives, with assigned GEO accession number GSE167097.
# Liver microsome assay = type: in vitro ADME; details: 0.25 mg/mL human liver microsomes
# Protocol: FIGS. 8A & 8B provide graphs showing the stability of CCF642-34 and restriction of multiple myeloma in a syngeneic mouse model by PDIA1-inhibitor CCF642-34. (A) The stability of CCF642-34 was measured against oxidative metabolism by human liver microsomes. CCF642-34 (20 μM) was incubated with 0.25 mg/mL of human liver microsomes for 5 h. The residual compound at indicated time points was measured by HPLC (Agilent 1260 Infinity II) interfaced with reverse phase C18 column using 280 nm and 245 nm detection wavelength. The standard curve of known concentrations of CCF642-34 was obtained from the area under the peak at two wavelengths, and the remaining CCF642-34 was estimated. Data are representative of two independent experiments. […] The survival of each group was monitored, and Kaplan-Meier survival analysis was performed. […]
# Liver microsome assay: 20 μM CCF642 or CCF642-34 were incubated with 1 mM NADPH and 0.25 mg/mL human liver microsomes (Sigma, Cat. No: M0567) at 37° C. […] Supernatant was obtained after centrifugation at 15,000 g for 5 min and the remaining compound in supernatant was analyzed by Agilent 1260 Infinity II HPLC with Ultra-violet (UV) detector using Gemini column, […] particle size 150×2 mm (Phenomenex). […] The relative amount of drug at each time point was determined by using the UV peak detection at wavelength 254 and 282 nm. […]
compound,measurement,setting,value
NC(CC1CNc2ccccc21)C(=O)NCCCOc1ccc(N2C(=O)/C(=C/c3ccc([N+](=O)[O-])s3)SC2=S)cc1 (centres unmarked) [CCF642-34],TRIB3 upregulation compared to controls,MM1.S cells,~20 fold
same,number of downregulated genes,MM1.S cells,156 genes
same,number of upregulated genes,MM1.S cells,206 genes
same,number of genes with changed expression compared to vehicle control,"MM1.S cells; 2-fold change, p less than 0.05",362 genes
same,half-life at 20 µM,Liver microsome assay,> 5 h
